Results from publication PMC9230590, “Pharmacokinetics and Tissue Distribution of Enavogliflozin in Mice and Rats” (Pharmaceutics, 2022).
Values joined by “and” are separate entries in the source; they are usually repeats but may differ in a detail not shown here. Equal values may be shown once. Read-outs that look alike come from different tables or passages of the source.

How the values were obtained:
[1] = Recovery from urine and feces over 72 h in rats; type: in vivo, Sprague Dawley (SD) rats; conditions: for Recovery, Feces / Recovery, Urine: parent form
Experimental: Three rats received enavogliflozin (1 mg/kg) intravenously and were returned to metabolic cages with food and water ad libitum and urine and feces samples were collected every 24 h for 72 h. Four rats received enavogliflozin (1 mg/kg) by oral gavage and were returned to their metabolic cages to collect urine and feces samples every 24 h for 72 h with the same protocols described above.
(§1) Concentrations of enavogliflozin in plasma and tissue homogenate samples were analyzed using an Agilent 6430 triple quadrupole liquid chromatography-mass spectrometry (LC–MS/MS) system (Agilent, Wilmington, DE, USA) following a previously published method.
Aliquots of plasma or urine (30 µL each) and tissue homogenate (50 µL each) were added to 100 µL of aqueous solution of d4-enavogliflozin (IS, 20 ng/mL), and vigorously mixed with 500 µL MTBE for 15 min. After centrifugation at 16,000× g for 5 min, samples were kept for 1 h, at a temperature of −80 °C to freeze the aqueous layer freeze. The organic upper layer was then transferred to a clean tube and evaporated to dryness under a gentle stream of nitrogen. The dried extract was reconstituted in 150 µL of mobile phase, and a 3 µL aliquot was injected into the LC–MS/MS system. Enavogliflozin was separated on a Synergi Polar RP column (2.0 × 150 mm, 4 µm particle size; Phenomenex, Torrence, CA, USA) using a isocratic mobile phase consisting of water (15%) and methanol (85%) containing 0.1% formic acid at a flow rate of 0.25 mL/min.

SGLT1 = system: SGLT1; parameters: method as in PMID 32183468; conditions: cited from earlier work
hepatocytes [2] = system: hepatocytes; parameters: method as in PMID 32932946; conditions: human cells (hepatocytes); cited from earlier work
hepatocytes [3] = system: hepatocytes; parameters: method as in PMID 32932946; conditions: rat hepatocytes; cited from earlier work
hepatocytes [4] = system: hepatocytes; parameters: method as in PMID 32932946; conditions: mouse hepatocytes; cited from earlier work
[5] = parameters: method as in PMID 32183468; conditions: mice; cited from earlier work
hepatocytes [6] = system: hepatocytes; parameters: method as in PMID 32932946; conditions: monkey hepatocytes; cited from earlier work
[7] = Tissue distribution after single oral administration in mice; type: in vivo, ICR mice; conditions: single oral 1 mg/kg; for half-life: read-out: T1/2 (elimination half-life) (converted); for AUC Ratio (AUC24 h, tissue / AUC24 h, plasma): 1 mg/kg
Experimental: Thirty-six ICR mice were fasted with water ad libitum for at least 12 h before oral administration of enavogliflozin and randomly divided into six groups (n = 6 per each sampling time point) and administered with an enavogliflozin solution at a dose of 1 mg/kg via oral gavage. Blood samples (approximately 0.2 mL) were collected at 0.5, 1, 2, 4, 8, 24 h via the abdominal artery. Subsequently, whole tissues, including stomach, small intestine, large intestine, liver, kidney, brain, heart, lung, spleen, and testis, were isolated. Blood samples were centrifuged at 12,000× g for 1 min to separate plasma. Tissue samples were minced thoroughly and homogenized with four volumes of saline using a tissue grinder. An aliquot (30 µL) of plasma and aliquots (50 µL) of tissue homogenate samples were stored at −80 °C until analysis.
as §1
The data were expressed as the means ± standard deviation for the groups. Pharmacokinetic parameters, such as the area under the plasma concentration–time curve during the period of observation (AUClast), AUC to infinite time (AUC∞), clearance (CL), and volume of distribution at steady-state (Vd,ss), the terminal half-life (t1/2), and mean residence time (MRT) were calculated using non-compartment analysis with WinNonlin software (version 5.1; Pharsights, Cary, NC, USA). The AUC ratios were calculated by dividing the AUClast of enavogliflozin in the tissue samples by the plasma AUClast values of enavogliflozin [15].

SMILES: OC[C@H]1O[C@@H](c2cc(Cc3ccc(C4CC4)cc3)c(Cl)c3c2CCO3)[C@H](O)[C@@H](O)[C@@H]1O [enavogliflozin, (2S,3R,4R,5S,6R)-2-(7-chloro-6-(4-cyclopropylbenzyl) -2,3-dihydrobenzofuran-4-yl)-6-(hydroxymethyl)tetrahydro-2H-pyran-3,4,5-triol]
- Recovery in feces relative to urine ([1]; 1 mg/kg IV): about 22.7 fold
- Recovery, Feces ([1]; 1 mg/kg IV, 0–24 h): 15.2 ± 6.2 % of Dose
- Recovery, Feces ([1]; 1 mg/kg IV, 0–72 h, 1 mg/kg): 15.9 ± 5.9 % of Dose and 15.9 % of Dose
- Recovery, Urine ([1]; 1 mg/kg IV, 0–72 h, 1 mg/kg): 0.7 ± 0.2 % of Dose and 0.7 % of Dose
- Recovery, Feces ([1]; 1 mg/kg IV, 24–48 h): 0.7 ± 0.8 % of Dose
- Recovery, Urine ([1]; 1 mg/kg IV, 24–48 h): 0.1 ± 0.0 % of Dose
- Recovery, Feces ([1]; 1 mg/kg PO, 0–24 h): 44.5 ± 11.8 % of Dose
- Recovery, Urine ([1]; 1 mg/kg PO, 0–24 h): 0.3 ± 0.1 % of Dose
- Recovery, Urine ([1]; 1 mg/kg PO, 0–72 h): 0.3 ± 0.1 % of Dose
- Recovery, Feces ([1]; 1 mg/kg PO, 0–72 h, 1 mg/kg): 45.5 % of Dose
- Recovery, Feces ([1]; 1 mg/kg PO, 24–48 h): 0.9 ± 0.4 % of Dose
- Recovery, Feces ([1]; 1 mg/kg PO, 48–72 h): 0.2 ± 0.0 % of Dose
- Recovery, Urine ([1]; 1 mg/kg PO, 48–72 h): 0.3 ± 0.1 % of Dose
- dose excreted ([1]; Sprague-Dawley, rat, urine and feces, 1 mg/kg IV, 72 h, read-out: total recovery (feces + urine)): ~16.6%
- IC50 (SGLT1): 0.549 ± 0.14 µM
- In vitro hepatic clearance (hepatocytes [2]): 0.27 L/h/kg
- In vitro hepatic clearance (hepatocytes [3]): 0.498 L/h/kg
- In vitro hepatic clearance (hepatocytes [4]): 2.19 L/h/kg
- ratio of AUC in kidney to AUC in plasma [5]: 85.0 ± 16.1
- In vitro hepatic clearance (hepatocytes [6]): 1.11 L/h/kg
- Kp ([7]; male, ICR, mouse, kidney (versus plasma), kidney, read-out: AUC Ratio (AUC24 h, tissue / AUC24 h, plasma)): 41.9
- Kp ([7]; male, ICR, mouse, kidney and intestinal tract (versus plasma), read-out: AUC ratio of kidney and intestinal tract compared with plasma): > 10
- Kp ([7]; male, ICR, mouse, large intestine (versus plasma), range over stomach, small and large intestine, read-out: plasma AUC ratio, gastrointestinal tract): 8.5 to 12.1
- Kp ([7]; male, ICR, mouse, liver (versus plasma), liver, read-out: AUC Ratio (AUC24 h, tissue / AUC24 h, plasma)): 5.8
- Kp ([7]; male, ICR, mouse, heart, read-out: AUC Ratio (AUC24 h, tissue / AUC24 h, plasma)): 1.7 ± 0.2
- half-life ([7]; male, ICR, mouse, heart): 3.6 h
- half-life ([7]; male, ICR, mouse, kidney): 29 h
- Kp ([7]; male, ICR, mouse, large intestine, read-out: AUC Ratio (AUC24 h, tissue / AUC24 h, plasma)): 8.5 ± 4.5
- half-life ([7]; male, ICR, mouse, large intestine): 3.4 h
- half-life ([7]; male, ICR, mouse, liver): 4.4 h
- Kp ([7]; male, ICR, mouse, lung, read-out: AUC Ratio (AUC24 h, tissue / AUC24 h, plasma)): 2 ± 0.2
- half-life ([7]; male, ICR, mouse, lung): 9.6 h
- AUC(0-t) ([7]; male, ICR, mouse, plasma, read-out: AUC24 h): 1.36 ± 0.26 µg·h/mL
- half-life ([7]; male, ICR, mouse, plasma): 3.7 h
- Kp ([7]; male, ICR, mouse, small intestine, read-out: AUC Ratio (AUC24 h, tissue / AUC24 h, plasma)): 10.8 ± 3
- half-life ([7]; male, ICR, mouse, small intestine): 2.6 h
- Kp ([7]; male, ICR, mouse, spleen, read-out: AUC Ratio (AUC24 h, tissue / AUC24 h, plasma)): 0.4
- half-life ([7]; male, ICR, mouse, spleen): 2.7 h
- Kp ([7]; male, ICR, mouse, stomach, read-out: AUC Ratio (AUC24 h, tissue / AUC24 h, plasma)): 12.1 ± 7
- half-life ([7]; male, ICR, mouse, stomach): 3.4 h
- Kp ([7]; male, ICR, mouse, testis, read-out: AUC Ratio (AUC24 h, tissue / AUC24 h, plasma)): 0.5 ± 0.1
- half-life ([7]; male, ICR, mouse, testis): 22 h
- Kp ([7]; male, ICR, mouse, versus plasma, read-out: AUC ratio in stomach, small intestine, large intestine, liver): > 5
- Concentration in brain tissue ([7]; brain): not detected
- AUC24 h ([7]; heart): 2.19 ± 0.35 µg·h/g
- K (elimination constant) ([7]; heart): 0.194 h⁻¹
- AUC24 h ([7]; kidney): 54.5 ± 3.5 µg·h/g
- K (elimination constant) ([7]; kidney): 0.024 h⁻¹
- AUC Ratio (AUC24 h, tissue / AUC24 h, plasma) ([7]; kidney): 41.9 ± 7.7
- AUC24 h ([7]; large intestine): 11.1 ± 4.3 µg·h/g
- K (elimination constant) ([7]; large intestine): 0.204 h⁻¹
- AUC24 h ([7]; liver): 8.08 ± 1.1 µg·h/g
- K (elimination constant) ([7]; liver): 0.159 h⁻¹
- AUC Ratio (AUC24 h, tissue / AUC24 h, plasma) ([7]; liver): 5.8 ± 0.4
- AUC24 h ([7]; lung): 3.04 ± 0.29 µg·h/g
- K (elimination constant) ([7]; lung): 0.072 h⁻¹
- K (elimination constant) ([7]; plasma): 0.185 h⁻¹
- AUC24 h ([7]; small intestine): 14.2 ± 3.4 µg·h/g
- K (elimination constant) ([7]; small intestine): 0.267 h⁻¹
- AUC24 h ([7]; spleen): 0.58 ± 0.11 µg·h/g
- K (elimination constant) ([7]; spleen): 0.255 h⁻¹
- AUC24 h ([7]; stomach): 15.1 ± 6.4 µg·h/g
- K (elimination constant) ([7]; stomach): 0.206 h⁻¹
- AUC24 h ([7]; testis): 0.95 ± 0.15 µg·h/g
- K (elimination constant) ([7]; testis): 0.031 h⁻¹
